Measurements taken from patent publication US20200223826A1, “Glucose-6-Phosphate Dehydrogenase (G6PD)-Modulating Agents And Methods Of Treating G6PD Deficiency” (The Board of Trustees of the Leland Stanford Junior …, priority 2017, published 2020).

Key:
[1] = target: T1, Canton G6PD in SH-SY5Y cells (Homo sapiens, UniProt P11413, R459L); assay: G6PD activity of SH-SY5Y cells expressing Canton variant; type: cell-based
T1 construct: expressed in transfected cells; host or cells: SH-SY5Y neuroblastoma cells
Protocol: (§1) Enzyme activity was measured by monitoring NADPH production, which was coupled with diaphorase converting resazurin to fluorescent resorufin (excitation at 565 nm and emission at 590 nm); fluorescent signal was thus proportional to G6PD activity. Assays were performed at 25° C. and run for 5 minutes in buffer containing 50 mM Tris (pH 7.4), 0.5 mM EDTA, 3.3 mM MgCl2, 1 U/ml diaphorase, 0.1 mM resazurin. 10 ng of recombinant enzymes or 10 μg of cell lysates was used for the assay with 10 μM NADP^+ (Sigma) as cofactor and 100 μM G6P (Sigma) as substrate. Steady-state kinetic parameters were obtained by varying concentrations of NADP^+ (0-10 μM) with a constant concentration of G6P (100 μM) and similarly for G6P (0-100 μM) with a constant concentration of NADP^+ (10 μM) with 10 ng of recombinant enzymes. Data analysis was performed using GraphPad Prism software v.6 (GraphPad Software, La Jolla, Calif. USA). Kinetic parameters were obtained by fitting the data to the Michaelis-Menten equation.
Prior to the cellular-based assays using SH-SH5Y cells, duration of overexpression of WT G6PD and Canton variant was examined by transfecting the cells seeded in a 12-well plate. The genes encoding human WT G6PD and Canton variant were first PCR-amplified, which was then inserted into pcDNA 3.1/myc-His C (ThermoFisher Scientific) using HindIII and XhoI. […]

D181A G6PD = target: T2, D181A G6PD (Homo sapiens, UniProt P11413, D181A); assay: Canton-mimicking mutant: activity and proteolytic stability; type: biochemical
T2 construct: His (pET-28a) (N, cleaved yes); made in house; host or cells: E. coli C43 (DE3)
Protocol: as §1
(§2) 200 ng of recombinant enzymes were incubated with 1 μL of 10 ng/μL chymotrypsin for 1 hour at room temperature. 100 μM of the compound was added to some reaction conditions. The following protein level was examined by Western blot.

N185A G6PD = target: T3, N185A G6PD (Homo sapiens, UniProt P11413, N185A); assay: as above; type: biochemical
T3 construct: His (pET-28a) (N, cleaved yes); made in house; host or cells: E. coli C43 (DE3)
Protocol: as §1, §2

zebrafish embryos = assay: ROS levels in chloroquine-treated zebrafish embryos; type: in vivo; conditions: chloroquine 50 μg/ml
Protocol: Embryos were dechorinated with pronase at 24 hours post fertilization (hpf) and treated with 50 μg/ml of chloroquine and/or AG1 by directly adding the compounds to the well. For ROS measurements, embryos were incubated with compounds for 2 hours, and then the ROS detecting reagent (CM-H2DCFDA) was added at a final concentration of 500 ng/ml to the well for a total treatment time of 5 hours. One embryo was placed to each well of a black, opaque 96-well plate. The florescence was analyzed with excitation/emission at 485/525 nm. After ROS assays, embryos at about 32 hpf were pooled and lysed in buffer containing 50 mM Tris (pH 7.4), 150 mM NaCl, 1 mM EDTA, 0.1% NP-40, and protease inhibitor cocktail, which was followed by three cycles of freeze and thawing in liquid nitrogen. The lysate was centrifuged at 14,000 rpm at 4° C. for 15 minutes. Total protein concentration in the supernatants (total lysate) was determined by Bradford method. 50 μg of total lysate was loaded onto 10% SDS-PAGE gels and the protein level was examined by Western blot using anti-G6PD antibody (Abcam (G6PD: AB87230)). 10 μg of total lysate was used for enzymatic assay. 50 μg of the lysate was used to measure NADPH levels using a NADPH quantification kit (Biovision), according to the manufacturer's instructions.

[2] = system: lymphocytes carrying the Canton variant; assay: Cellular ROS measurement in lymphocytes; type: cell-based, human; conditions: treatment with AG1 for 24 hours
Protocol: Cells in a 96-well plate were incubated with chloromethyl-2′,7′-dichlorodihydrofluorescein diacetate (CM-H2DCFDA) at a final concentration of 5 μM in HBSS (Hank's balanced salt solution) for 30 minutes at 37° C. After wash, cells were treated with Hoechst 33342 (1:10,000 dilution, Molecular Probes) to stain nuclei and incubated for another 10 minutes at 37° C. Cells were washed in HBSS, and the florescence was analyzed with excitation/emission at 485/525 nm. Cells were subjected to serum starvation (50-75%) for 48 hours to induce oxidative stress and treated with the compound for 24 hours before measurement. The signal was normalized to nuclei staining (excitation/emission at 350/470 nm).

[3] = target: T4, G6PD in human erythrocytes (Homo sapiens, UniProt P11413); assay: Erythrocyte refrigerated storage assay, G6PD activity; type: cell-based; conditions: AG1 1 μM
T4 construct: host or cells: human erythrocytes
Protocol: (§3) De-identified blood samples were obtained from the Stanford Blood Center. Erythrocytes were collected by filtering the samples through a cellulose slurry to remove platelets and leukocytes and then washed with saline. G6PD activity was measured (Beutler E. Red cell metabolism: A manual of biochemical methods (3rd edition). Grune & Stratton (1984)). […] A 5% erythrocyte suspension was pre-incubated with 1-5 μM AG1 at 4° C. overnight, which was followed by treatment with (or without) either 1 mM chloroquine (CQ) or 1 mM diamide for 3-4 hours at 37° C. (for hemolysis assay with chloroquine, the mixture was incubated under light). Then centrifugation at 1,000 rpm for 5 minutes was followed. Hemoglobin release in the supernatant was monitored by measuring absorbance at 540 nm. […] After wash, the samples were lysed with 0.1% Triton X-100 (final concentration), and the florescence was analyzed with excitation/emission at 485/525 nm. GSH measurement was determined using a Cayman glutathione assay kit (Cayman Chemicals, 703002). […] The absorbance was read at 412 nm. For storage assay, a 5% erythrocyte suspension was stored at 4° C. with and without 1 μM AG1, and hemolysis and G6PD activity were monitored every week for 28 days to examine whether AG1 improves preservation of erythrocytes over time. Protein leakage was also examined by measuring the absorbance of the supernatant of samples at 280 nm. […]

[4] = target: T4, G6PD in human erythrocytes; assay: G6PD activity in erythrocytes under oxidative stressors; type: cell-based; conditions: drug-induced oxidative stress
Protocol: as §3

T4 sequence (P11413 2-515 limits assumed): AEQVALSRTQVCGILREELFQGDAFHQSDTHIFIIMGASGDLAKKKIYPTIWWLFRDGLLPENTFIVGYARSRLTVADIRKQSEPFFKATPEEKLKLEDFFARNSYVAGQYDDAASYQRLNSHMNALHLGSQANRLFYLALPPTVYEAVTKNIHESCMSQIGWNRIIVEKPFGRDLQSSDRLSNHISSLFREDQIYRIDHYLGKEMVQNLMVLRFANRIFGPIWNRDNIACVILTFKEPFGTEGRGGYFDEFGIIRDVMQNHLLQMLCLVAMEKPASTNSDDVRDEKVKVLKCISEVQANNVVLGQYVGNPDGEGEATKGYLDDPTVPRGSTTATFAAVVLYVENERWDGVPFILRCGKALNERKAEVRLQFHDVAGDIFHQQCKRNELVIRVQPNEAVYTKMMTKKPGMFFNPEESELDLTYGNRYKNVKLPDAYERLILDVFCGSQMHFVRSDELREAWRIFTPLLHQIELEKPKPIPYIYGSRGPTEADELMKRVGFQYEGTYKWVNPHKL
T1 sequence (P11413 2-515 R459L): as the sequence (P11413 2-515 limits assumed) above, with R458L counted along it
T3 sequence (P11413 whole entry N185A): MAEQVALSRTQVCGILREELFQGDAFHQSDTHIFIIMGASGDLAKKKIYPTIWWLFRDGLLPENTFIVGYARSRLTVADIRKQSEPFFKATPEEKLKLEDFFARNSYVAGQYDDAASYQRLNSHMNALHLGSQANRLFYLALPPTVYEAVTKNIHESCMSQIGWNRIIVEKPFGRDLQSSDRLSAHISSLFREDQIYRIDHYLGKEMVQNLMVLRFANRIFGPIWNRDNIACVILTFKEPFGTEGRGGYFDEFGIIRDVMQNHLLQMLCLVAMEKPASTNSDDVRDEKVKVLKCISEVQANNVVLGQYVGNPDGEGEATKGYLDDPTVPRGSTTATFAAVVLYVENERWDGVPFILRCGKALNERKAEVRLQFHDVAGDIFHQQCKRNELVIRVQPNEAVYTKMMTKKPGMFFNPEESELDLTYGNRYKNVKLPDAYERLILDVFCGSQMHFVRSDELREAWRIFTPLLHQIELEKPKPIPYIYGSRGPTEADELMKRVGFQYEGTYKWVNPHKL
T2 sequence (P11413 whole entry D181A): as the sequence (P11413 whole entry N185A) above, with D181A, A185N counted along it

`SCCNCCc1c[nH]c2ccccc12` [AG1, 2-[2-(1H-indol-3-yl)ethylamino]ethanethiol] was tested, and the G6PD activity [1] was “mild increase”, the “activity and proteolytic stability” value (D181A G6PD) was “increased activity and proteolytic stability” and the “activity and proteolytic stability” value (N185A G6PD) was “increased activity and proteolytic stability”. For the same compound, the ROS levels (zebrafish embryos) was “reduced”, the ROS level [2] was “decreased” and the G6PD activity [3] was “increased”. The G6PD activity [4] was “increased”.
